Where two headings read alike, the source gives them in different places.
Columns and labels:
[1] = molecular target: T1, CB1 receptor (Homo sapiens, UniProt P21554); experiment: [35S]-GTPγS binding assay, inhibition of CP55940 (EC80) stimulated activity in membranes of cells stably transfected with the CB1 gene; assay type: biochemical
T1 construct: expressed in transfected cells
Protocol: 10 μg of membranes prepared from cells stably transfected with the CB1 gene were suspended in 200 μl of 100 mM NaCl, 5 mM MgCl2, 1 mM EDTA, 50 mM HEPES (pH 7.4), 1 mM DTT, 0.1% BSA and 100 μM GDP. To this was added an EC80 concentration of agonist (CP55940), the required concentration of test compound and 0.1 μCi [^35S]-GTPγS. The reaction was allowed to proceed at 30° C. for 45 min. Samples were then transferred on to GF/B filters using a cell harvester and washed with wash buffer (50 mM Tris (pH 7.4), 5 mM MgCl2, 50 mM NaCl). Filters were then covered with scintilant and counted for the amount of [^35S]-GTPγS retained by the filter.
Activity is measured in the absence of all ligands (minimum activity) or in the presence of an EC80 concentration of CP55940 (maximum activity). These activities are set as 0% and 100% activity respectively. At various concentrations of novel ligand, activity is calculated as a percentage of the maximum activity and plotted. The data are fitted using the equation y=A+((B−A)/1+((C/x)ÚD)) and the IC50 value determined as the concentration required to give half maximal inhibition of GTPγS binding under the conditions used.

[2] = Solubility in dimethyl sulfoxide; assay type: physicochemical; details: organic solvent dimethyl sulfoxide
Description: The compounds of the present invention have improved solubility in organic solvents compared to compounds in the prior art. […] It would be expected that this increase in solubility in organic solvents would lead to improvements in bioavailability and ease of manufacture and formulation.

[3] = half maximal inhibition of GTPγS binding, EC80 concentration of agonist CP55940, 30° C. 45 min, read-out: IC50

T1 sequence (P21554 whole entry): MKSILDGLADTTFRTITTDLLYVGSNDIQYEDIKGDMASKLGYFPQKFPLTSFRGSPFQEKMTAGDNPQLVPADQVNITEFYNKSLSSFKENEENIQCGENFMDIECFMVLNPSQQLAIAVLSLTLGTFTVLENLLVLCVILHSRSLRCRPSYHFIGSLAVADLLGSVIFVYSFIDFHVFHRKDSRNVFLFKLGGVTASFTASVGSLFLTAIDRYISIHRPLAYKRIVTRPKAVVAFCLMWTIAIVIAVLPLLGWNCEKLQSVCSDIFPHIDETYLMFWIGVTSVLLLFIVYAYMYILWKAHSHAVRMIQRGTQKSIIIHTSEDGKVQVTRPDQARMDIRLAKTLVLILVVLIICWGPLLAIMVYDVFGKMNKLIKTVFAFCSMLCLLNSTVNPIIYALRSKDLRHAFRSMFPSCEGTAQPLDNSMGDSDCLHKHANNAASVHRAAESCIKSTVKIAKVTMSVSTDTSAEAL

SMILES | IC50 [1, 3] | other results
Cc1c2c(n(-c3ccc(Cl)cc3Cl)c1-c1ccc(CN3CCC(F)(F)C3)cc1)CCN(N1CCCCC1)C2=O [Example 1, 1-(2,4-dichlorophenyl)-2-{4-[(3,3-difluoropyrrolidin-1-yl)methyl]phenyl}-3-methyl-5-piperidin-1-yl-1,5,6,7-tetrahydro-4H-pyrrolo[3,2-c]pyridin-4-one] | 5.1 nM | 
Cc1c2c(n(-c3ccc(Cl)cc3Cl)c1-c1ccc(CN3CC(F)(F)C3)cc1)CCN(N1CCCCC1)C2=O [Example 2, 1-(2,4-dichlorophenyl)-2-{4-[(3,3-difluoroazetidin-1-yl)methyl]phenyl}-3-methyl-5-piperidin-1-yl-1,5,6,7-tetrahydro-4H-pyrrolo[3,2-c]pyridin-4-one] | 7.5 nM | 
Cc1c2c(n(-c3ccc(Cl)cc3Cl)c1-c1ccc(/C=C/CCC(F)(F)F)cc1)CCN(N1CCCCC1)C2=O [Example 3, 1-(2,4-dichlorophenyl)-3-methyl-5-piperidin-1-yl-2-{4-[5,5,5-trifluoropent-1-en-1-yl]phenyl}-1,5,6,7-tetrahydro-4H-pyrrolo[3,2-c]pyridin-4-one] | 5 nM | 
Cc1c2c(n(-c3ccc(Cl)cc3Cl)c1-c1ccc(CCCCC(F)(F)F)cc1)CCN(N1CCCCC1)C2=O [Example 4, 1-(2,4-dichlorophenyl)-3-methyl-5-piperidin-1-yl-2-[4-(5,5,5-trifluoropentyl)phenyl]-1,5,6,7-tetrahydro-4H-pyrrolo[3,2-c]pyridin-4-one] | 2.5 nM | 
CCC/C=C/c1ccc(-c2c(C)c3c(n2-c2ccc(Cl)cc2Cl)CCN(N2CCCCC2)C3=O)cc1 [Example 5, 1-(2,4-dichlorophenyl)-3-methyl-2-{4-[pent-1-en-1-yl]phenyl}-5-piperidin-1-yl-1,5,6,7-tetrahydro-4H-pyrrolo[3,2-c]pyridin-4-one] | 2.1 nM | 
CCCCCc1ccc(-c2c(C)c3c(n2-c2ccc(Cl)cc2Cl)CCN(N2CCCCC2)C3=O)cc1 [Example 6, 1-(2,4-dichlorophenyl)-3-methyl-2-(4-pentylphenyl)-5-piperidin-1-yl-1,5,6,7-tetrahydro-4H-pyrrolo[3,2-c]pyridin-4-one] |  | IC50 [1]: 2.1 nM
Cc1c2c(n(-c3ccc(Cl)cc3Cl)c1-c1ccc(Cl)cc1)CCN(N1CCCCC1)C2=O [Example 19 of WO03/027114, 2-(4-chlorophenyl)-1-(2,4-dichlorophenyl)-3-methyl-5-(1-piperidinyl)-1,5,6,7-tetrahydro-4H-pyrrolo-[3,2-c]pyridin-4-one] |  | solubility in dimethyl sulfoxide [2]: insoluble

— patent US20080262026A1, “Therapeutic Agents 684” (AstraZeneca AB, priority 2007, published 2008)
